Measured values taken from US8852591B2, “Combination of BLyS and/or APRIL inhibition and immunosuppressants for treatment of autoimmune disease” (Zymogenetics, Inc., priority 2007, dated 2014).

Experiments:
total serum IgG = assay: 28-day atacicept and MMF co-administration study, total serum IgG by ELISA; assay type: in vivo, CD-1 mice
Description: (§1) Atacicept and MMF (CellCept) co-administration was tested in a 28-day study in CD-1 mice. One hundred fifty animals were distributed among four treatment groups. Group 1 received vehicle control articles used for both atacicept and MMF using the same route and regimen used for each test article. Group 2 received MMF (351 mg/kg) via daily oral gavage. Group 3 received atacicept (20 mg/kg) three times weekly via subcutaneous injection. Group 4 received atacicept (20 mg/kg, 3×/week, SC) and MMF (351 mg/kg, daily, oral), typically administered within 30 minutes of each other. […]
(§2) Animals were sacrificed at baseline (Day-1) and Days 14, 28 (last day of treatment), 42, 56, and 112. […] Body weights were measured and recorded on Day-1 of the study and weekly thereafter, and prior to sacrifice. […] Total serum IgG, IgM, and IgA were measured using a […] necropsies were conducted on sacrificed animals for evaluation of organ weight changes, gross pathology, and histopathology.
Total IgG levels were evaluated using a mouse IgG ELISA quantitation kit (Catalog #E90-131, Bethyl Laboratories, Montgomery, Tex.), combined with the ELISA Starter Accessory Package (Catalog #E101, Bethyl Laboratories, Montgomery, Tex.). […] The color reaction was stopped with addition of 2 M H2SO4, and the resulting absorbance (OD-450) was measured on a Spectramax 190 microplate reader. […]

total serum IgM = assay: 28-day atacicept and MMF co-administration study, total serum IgM by ELISA; assay type: in vivo, CD-1 mice
Description: as §1, §2
Total IgM levels were evaluated using a mouse IgM ELISA quantitation kit (Catalog #E90-101, Bethyl Laboratories, Montgomery, Tex.), combined with the ELISA Starter Accessory Package (Catalog #E101, Bethyl Laboratories, Montgomery, Tex.). […] The color reaction was stopped with addition of 2 M H2SO4, and the resulting absorbance (OD-450) was measured on a Spectramax 190 microplate reader. […]

total serum IgA = assay: 28-day atacicept and MMF co-administration study, total serum IgA by ELISA; assay type: in vivo, CD-1 mice
Description: as §1, §2
Total IgA levels were evaluated using a mouse IgA ELISA quantitation kit (Catalog #E90-103, Bethyl Laboratories, Montgomery, Tex.), combined with the ELISA Starter Accessory Package (Catalog #E101, Bethyl Laboratories, Montgomery, Tex.). […] The color reaction was stopped with addition of 2 M H2SO4, and the resulting absorbance (OD-450) was measured on a Spectramax 190 microplate reader. […]

total IgG serum levels = assay: Repeat and extension of atacicept and MMF combination experiment, total IgG by ELISA; assay type: in vivo, mice; details: for Numeric mean IgG: dosing until day 91, atacicept 20 mg/kg s.c. 3/week, MMF 350 mg/kg/day oral
Description: (§3) Using similar procedures to those described in Example 3 and dosing until day 91, the results of Example 3 were replicated and extended in time to days 35, 91, 126, and 182.
(§4) Group 1 received both the vehicle for ATACICEPT and the vehicle for CellCept at the same treatment frequency as the treated groups. Group 2 was treated with only ATACICEPT
(§5) Group 3 received only CellCept. Group 4 received CellCept oral gavage followed by ATACICEPT s.c. injection within a period of approximately 30 minutes. The day of the first treatment was considered day 1 of the study. Throughout the study period clinical observations, hematological and blood chemistry tests, toxicokinetics and additional investigations were carried out.
(§6) Additional satellite groups of animals were used for total immunoglobulin determinations and antibody determination. They were treated and weighed according to the same procedures as the main study.
(§7) Blood samples were collected from 3 animals/sex/group (in progressive numerical order) for the determination of IgG, IgM and IgA serum levels at the following times:
(§8) from animals of groups 9, 10, 11 and 12:
(§9) • on day 34 of the 5-week treatment period • on day 90 of the 13-week treatment period • on day 34 of the 5-week recovery period • on day 90 of the 13-week recovery period
(§10) The blood (at least 0.8-1 mL) was collected at sacrifice from the abdominal aorta of mice after they have been completely anaesthetized with diethyl ether.
(§11) Samples were collected in tubes without any anticoagulant and allowed to clot for about 1 hour at room temperature. The clot were spun down by centrifugation at 3000 rpm at +4° C. for 15 minutes. Blood cells were discarded and the serum banked in 100 μL aliquots (four aliquots for every single analysis) and stored at −80° C. until analysis. Total IgG, IgM and IgA levels were determined by validated ELISA methods.

total IgM serum levels = assay: Repeat and extension of atacicept and MMF combination experiment, total IgM by ELISA; assay type: in vivo, mice; details: for Numeric mean IgM: dosing until day 91
Description: as §3, §4, §5, §6, §7, §8, §9, §10, §11

total IgA serum levels = assay: Repeat and extension of atacicept and MMF combination experiment, total IgA by ELISA; assay type: in vivo, mice; details: for Numeric mean IgA: dosing until day 91
Description: as §3, §4, §5, §6, §7, §8, §9, §10, §11

[1] = Day 28 (last day of treatment), MMF 351 mg/kg daily oral, atacicept 20 mg/kg 3x/week SC
[2] = Day 28, positive = reduction versus vehicle

Structure (SMILES): COc1c(C)c2c(c(O)c1C/C=C(\C)CCC(=O)OCCN1CCOCC1)C(=O)OC2 [MMF, mycophenolate mofetil]
- Numeric mean IgG (total serum IgG; [1]): 185 µg/mL
- Difference from Vehicle, mean IgG (vehicle minus treatment) (total serum IgG; [2]): -6 µg/mL
- Numeric mean IgM (total serum IgM; [1]): 317 µg/mL
- Difference from Vehicle, mean IgM (vehicle minus treatment) (total serum IgM; [2]): -79 µg/mL
- Numeric mean IgA (total serum IgA; [1]): 506 µg/mL
- Difference from Vehicle, mean IgA (vehicle minus treatment) (total serum IgA; [2]): -8 µg/mL
- Difference from Vehicle, mean IgG (vehicle minus treatment) (total IgG serum levels; Sample Day 35): -420.43 µg/mL
- Numeric mean IgG (total IgG serum levels; Sample Day 35): 940.13 µg/mL
- Difference from Vehicle, mean IgG (vehicle minus treatment) (total IgG serum levels; Sample Day 91): -495.86 µg/mL
- Numeric mean IgG (total IgG serum levels; Sample Day 91): 1192.87 µg/mL
- Difference from Vehicle, mean IgM (vehicle minus treatment) (total IgM serum levels; Sample Day 35): -35.64 µg/mL
- Numeric mean IgM (total IgM serum levels; Sample Day 35, atacicept 20 mg/kg s.c. 3/week, MMF 350 mg/kg/day oral): 141.34 µg/mL
- Difference from Vehicle, mean IgM (vehicle minus treatment) (total IgM serum levels; Sample Day 182): 20.18 µg/mL
- Numeric mean IgM (total IgM serum levels; Sample Day 182 (recovery period)): 53.77 µg/mL
- Difference from Vehicle, mean IgA (vehicle minus treatment) (total IgA serum levels; Sample Day 91): -840.19 µg/mL
- Numeric mean IgA (total IgA serum levels; Sample Day 91, atacicept 20 mg/kg s.c. 3/week, MMF 350 mg/kg/day oral): 1764.55 µg/mL
- Difference from Vehicle, mean IgA (vehicle minus treatment) (total IgA serum levels; Sample Day 126): -353.57 µg/mL
- Numeric mean IgA (total IgA serum levels; Sample Day 126 (recovery period)): 1467.05 µg/mL
